Here are results for 68 compounds from the pKa sets of Baltruschat and Czodrowski (2020).

Each structure is given as a SMILES string.

For orientation: pKa means the negative logarithm of the acid dissociation constant. `O=P([O-])([O-])C([NH2+]Cc1ccccn1)c1ccccc1O` (stereo unspecified) came in with a pKa (acidic group) of 10.2.

As for `Oc1ccc(/N=N/c2nc3ccccc3s2)c2cccnc12`, for the setting “acidic group”, the pKa was found to be 7.2.

For the compound `O/N=C/c1ccccc1`, where the note is “acidic group”, the pKa came to 10.8.

On to `O/N=C/c1ccc(Cl)cc1`, for which the pKa (acidic group) amounted to 10.5.

For `CCCCCCCCCCCCCCCCCCN`, the pKa (basic group) worked out at 10.6.

In turn, `CCCCC(CC)C(=O)O[C@H]1O[C@@H](C(=O)O)[C@H](O)[C@@H](O)[C@@H]1O` (stereo partly specified) registered a pKa (acidic group) of 3.08.

In turn, `O=C1C[C@@H](C(=O)O)[C@@H](C(=O)O)O1` had a pKa (acidic group) of 2.26.

In the case of `C=C(C)C1=C(O)CC(C)CC1` (stereo unspecified), the pKa (acidic group) was found to be 11.9.

The compound `NCC[NH2+]Cc1ccccc1` showed a pKa (basic group) of 6.48.

Regarding `C[Si](C)(CNC1CCCCC1)O[Si](C)(C)CNC1CCCCC1`, the pKa (basic group) worked out at 10.1.

Consider `Oc1ccc(I)cc1`, for which the pKa (acidic group) is 9.32.

For the setting “basic group”, `CC(C)C[C@H]([NH3+])C(=O)N[C@@H](Cc1c[nH]cn1)C(=O)[O-]` yielded a pKa of 6.69.

For `O=C1CNC(=O)N1`, the pKa (acidic group) was determined as 9.12.

For the compound `CSC(C)=N`, the pKa (basic group) worked out at 6.71.

Under “basic group”, `Cc1nc(-c2ccccc2SCc2ccccc2)[nH]c1C` returned a pKa of 7.

In turn, `C=CCC1(CC=C)SC(=O)NC1=O` registered a pKa (acidic group) of 6.1.

For the setting “basic group”, `CN(C)c1ncc(Br)s1` registered a pKa of 3.66.

For the setting “acidic group”, `Cc1cc(C)c(O)c(C)c1` yielded a pKa of 10.9.

Regarding `CC(C)(N)c1ccccc1`, the pKa (basic group) was found to be 10.4.

`CC(C)CNCC(C)C`: the pKa (basic group) was 10.6.

Consider `O=[N+]([O-])c1cccc2c[n+](CCCO)ccc12`, for which, where the note is “acidic group”, the pKa was 10.4.

Take `OC(CN1CCCC1)CN1CCCC1`: where the note is “basic group”, the pKa stood at 9.73.

As for `Sc1nc2cc3ccccc3cc2[nH]1`, the pKa (acidic group) was 9.84.

In the case of `O=S(=O)(Nc1ccccc1)c1ccc(Cl)cc1`, the pKa (acidic group) stood at 7.98.

As for `[O-]c1ccccc1C1=NCCN1`, under “basic group”, the pKa amounted to 12.6.

In the case of `Fc1cccc2[nH]cnc12`, the pKa (basic group) came out at 4.4.

For the compound `O=[N+]([O-])c1ccc(-c2ccc(O)cc2)cc1`, the pKa (acidic group) came to 9.01.

Compound `Cc1nc(C)c(C)nc1C` gave a pKa (basic group) of 3.36.

`CC(C)(O)C(C(=O)O)c1ccc(C2CCCCC2)cc1` (stereo unspecified) gave a pKa (acidic group) of 3.76.

In turn, `C=C(C)[C@H]1C[NH2+][C@H](C(=O)O)[C@H]1CC(N)=O` showed a pKa (acidic group) of 2.01.

Take `O=C(O)c1cnc(Cl)s1`: the pKa (acidic group) came to 3.

Under “acidic group”, `O=C(Nc1ccccc1)ONC(=O)c1ccccc1` had a pKa of 6.4.

As to `CCCN(CCC)CC(=O)Nc1c(C)cccc1C`, the pKa (basic group) was 7.68.

The compound `OCCO` displayed a pKa (acidic group) of 14.

On to `CN(C)Cc1c(C(C)(C)C)cccc1C(C)(C)C`, for which, where the note is “basic group”, the pKa stood at 9.2.

Compound `CC(C)S(=O)(=O)n1c(N)nc2ccc(/C(=C/C(N)=O)c3cc(F)ccc3F)cc21` had a pKa (basic group) of 3.4.

On to `CCCCS(=O)O`, for which, where the note is “acidic group”, the pKa was 2.2.

Under “acidic group”, `CC(=O)c1ccc(Br)cc1` gave a pKa of 18.

In the case of `CC1(C)OC(=O)C[C@H]2[C@@H](C(=O)[O-])NC[C@H]21`, the pKa (basic group) was determined as 9.

On to `NC(=O)CCCCc1cccnc1`, for which the pKa (basic group) was 5.6.

`O=C([O-])[C@@H]1CCC[C@H](C(=O)[O-])N1` came in with a pKa (basic group) of 9.92.

With `Cc1cc(C)nc(NS(=O)(=O)c2ccc(O)cc2)n1`, the pKa (acidic group) was 7.52.

`CSc1cccc2ncccc12` came in with a pKa (basic group) of 4.5.

For the setting “acidic group”, `C[n+]1cccc2cc(O)ccc21` returned a pKa of 7.15.

As to `C=CCN(C)C`, for the setting “basic group”, the pKa was 8.72.

Take `Cc1ccc2[nH]c(CO)nc2c1`: the pKa is 11.5 (acidic group) and 5.64 (basic group).

In the case of `OC1(c2cc3ccccc3o2)CN2CCC1CC2` (stereo unspecified), the pKa (basic group) was found to be 8.84.

Regarding `O=[N+]([O-])c1cccc2nc3ccccc3c(NCCO)c12`, the pKa (basic group) came to 7.2.

`Cc1cccc(C)c1OCC(=O)O` returned a pKa (acidic group) of 3.36.

Compound `Cc1cccc(NCCS)c1` came in with a pKa (basic group) of 4.68.

Regarding `O=C(O)c1ccc[nH+]c1`, the pKa (acidic group) was found to be 2.03 and the pKa (basic group) is -2.4.

The compound `COc1c(C)cccc1C(=O)N[C@@H]1C[C@H]2CC[C@@H](C1)N2Cc1ccccc1` gave a pKa (basic group) of 8.92.

In the case of `O=[N+]([O-])c1cccc2[nH]ncc12`, under “basic group”, the pKa worked out at 0.42.

For `O=[N+]([O-])c1n[nH]c(-n2cncn2)n1`, where the note is “acidic group”, the pKa is 2.

In the case of `O=C(O)c1ccc(/N=C/c2ccccc2)cc1`, the pKa was 4.47 (acidic group) and 1.97 (basic group).

`OCNc1nc(NCO)nc(NCO)n1` displayed a pKa (basic group) of 4.05.

Where the note is “acidic group”, `CSCC(=O)O` yielded a pKa of 3.67.

In turn, `CC(C)CN(C)C` gave a pKa (basic group) of 9.91.

`O=C(/C=N/O)CCl` registered a pKa (acidic group) of 7.9.

Regarding `O=[Se](O)c1cccc(-c2ccccc2)c1`, the pKa (acidic group) was found to be 4.87.

Regarding `Cc1nc(NS(=O)(=O)c2ccc(N)cc2)no1`, under “acidic group”, the pKa is 4.4.

`CCCCCCCCN1CCCCC1`: the pKa (basic group) came to 8.28.

`CCc1cc(C)cc(O)c1` gave a pKa (acidic group) of 10.1.

As to `O=C(O)Cc1ccc2ccccc2c1`, the pKa (acidic group) worked out at 4.26.

Consider `Cc1cc(C[NH3+])c(O)c(C[NH3+])c1`, for which the pKa (acidic group) is 7.

Consider `CNCC(=O)N(C)C`, for which the pKa (basic group) was found to be 8.86.

For the compound `C1=C(c2ccccc2)C2CCN1CC2`, the pKa (basic group) is 9.1.

Compound `Cc1ccc(N)nc1` showed a pKa (basic group) of 7.22.
